Data reported in the supplement of paper PMC10627819.

Experiments:
Experiment in all cases: fitness (endpoint OD595 vs no drug) (fraction); higher = more growth
B. subtilis 168 = test system: B. subtilis 168
Outline: (§1)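 Bacterial growth was followed in 384-well plates seeded at OD595 0.01, with 30 µl per well, or 55 µl for S. pneumoniae, in TSB, LB Lennox or CY at 37 °C. OD595 was read every 30 min for 14 h, and each reading had the first reading subtracted as background. Fitness is the background-corrected optical density at entry into stationary phase divided by the robust mean of the no-drug control wells. This ratio is capped at 1.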

S. aureus DSM 20231 = test system: S. aureus DSM 20231
Outline: as §1

S. pneumoniae D39V = test system: S. pneumoniae D39V
Outline: as §1

CN(C)[C@@H]1C(O)=C(C(N)=O)C(=O)[C@@]2(O)C(O)=C3C(=O)c4c(O)ccc(Cl)c4[C@@](C)(O)[C@H]3C[C@@H]12 [Chlortetracycline] + Cc1ncc([N+](=O)[O-])n1CCO [Metronidazole]
Conditions	fitness
B. subtilis 168, first compound 0.0475 µg/mL, partner 0.625 µg/mL	0.978
B. subtilis 168, first compound 0.0475 µg/mL, partner 1.25 µg/mL	0.925
B. subtilis 168, first compound 0.0475 µg/mL, partner 2.5 µg/mL	0.959
B. subtilis 168, first compound 0.095 µg/mL, partner 0.625 µg/mL	0.888
B. subtilis 168, first compound 0.095 µg/mL, partner 1.25 µg/mL	0.789
B. subtilis 168, first compound 0.095 µg/mL, partner 2.5 µg/mL	0.822
B. subtilis 168, first compound 0.19 µg/mL, partner 0.625 µg/mL	0.619
B. subtilis 168, first compound 0.19 µg/mL, partner 1.25 µg/mL	0.586
B. subtilis 168, first compound 0.19 µg/mL, partner 2.5 µg/mL	0.536
S. aureus DSM 20231, first compound 0.048 µg/mL, partner 0.625 µg/mL	0.196
S. aureus DSM 20231, first compound 0.048 µg/mL, partner 1.25 µg/mL	0.144
S. aureus DSM 20231, first compound 0.048 µg/mL, partner 2.5 µg/mL	0.124
S. pneumoniae D39V, first compound 0.012 µg/mL, partner 1.073 µg/mL	0.958
S. pneumoniae D39V, first compound 0.012 µg/mL, partner 4.29 µg/mL	0.904
S. pneumoniae D39V, first compound 0.024 µg/mL, partner 1.073 µg/mL	0.972
S. pneumoniae D39V, first compound 0.024 µg/mL, partner 4.29 µg/mL	0.916
S. pneumoniae D39V, first compound 0.048 µg/mL, partner 1.073 µg/mL	0.855
S. pneumoniae D39V, first compound 0.048 µg/mL, partner 2.145 µg/mL	0.873
S. pneumoniae D39V, first compound 0.048 µg/mL, partner 4.29 µg/mL	0.872
S. pneumoniae D39V, first compound 0.375 µg/mL, partner 1.25 µg/mL	0.0344
S. pneumoniae D39V, first compound 0.375 µg/mL, partner 2.5 µg/mL	0.0383
S. pneumoniae D39V, first compound 0.375 µg/mL, partner 5 µg/mL	0.0668
S. pneumoniae D39V, first compound 0.75 µg/mL, partner 1.25 µg/mL	0.0404
S. pneumoniae D39V, first compound 0.75 µg/mL, partner 2.5 µg/mL	0.045
S. pneumoniae D39V, first compound 0.75 µg/mL, partner 5 µg/mL	0.0953
S. pneumoniae D39V, first compound 1.5 µg/mL, partner 1.25 µg/mL	0.0574
S. pneumoniae D39V, first compound 1.5 µg/mL, partner 2.5 µg/mL	0.0668
S. pneumoniae D39V, first compound 1.5 µg/mL, partner 5 µg/mL	0.0748

S. aureus DSM 20231, first compound 0.006 µg/mL, one replicate
Conditions	fitness
partner 0.625 µg/mL	0.807
partner 1.25 µg/mL	0.8
partner 2.5 µg/mL	0.833

CN(C)[C@@H]1C(O)=C(C(N)=O)C(=O)[C@@]2(O)C(O)=C3C(=O)c4c(O)ccc(Cl)c4[C@@](C)(O)[C@H]3C[C@@H]12 [Chlortetracycline] + Cc1onc(-c2ccccc2)c1C(=O)N[C@@H]1C(=O)N2[C@@H]1SC(C)(C)[C@@H]2C(=O)O [Oxacillin]
Conditions	fitness
B. subtilis 168, first compound 0.0475 µg/mL, partner 0.002 µg/mL	0.868
B. subtilis 168, first compound 0.0475 µg/mL, partner 0.004 µg/mL	0.829
B. subtilis 168, first compound 0.0475 µg/mL, partner 0.008 µg/mL	0.832
B. subtilis 168, first compound 0.095 µg/mL, partner 0.002 µg/mL	0.802
B. subtilis 168, first compound 0.095 µg/mL, partner 0.004 µg/mL	0.764
B. subtilis 168, first compound 0.095 µg/mL, partner 0.008 µg/mL	0.726
B. subtilis 168, first compound 0.19 µg/mL, partner 0.002 µg/mL	0.488
B. subtilis 168, first compound 0.19 µg/mL, partner 0.004 µg/mL	0.401
B. subtilis 168, first compound 0.19 µg/mL, partner 0.008 µg/mL	0.416
S. aureus DSM 20231, first compound 0.012 µg/mL, partner 0.0156 µg/mL	0.452
S. aureus DSM 20231, first compound 0.012 µg/mL, partner 0.0312 µg/mL	0.379
S. aureus DSM 20231, first compound 0.012 µg/mL, partner 0.0625 µg/mL	0.341
S. aureus DSM 20231, first compound 0.024 µg/mL, partner 0.0156 µg/mL	0.204
S. aureus DSM 20231, first compound 0.024 µg/mL, partner 0.0312 µg/mL	0.173
S. aureus DSM 20231, first compound 0.024 µg/mL, partner 0.0625 µg/mL	0.165
S. aureus DSM 20231, first compound 0.048 µg/mL, partner 0.0156 µg/mL	0.0968
S. aureus DSM 20231, first compound 0.048 µg/mL, partner 0.0312 µg/mL	0.0599
S. aureus DSM 20231, first compound 0.048 µg/mL, partner 0.0625 µg/mL	0.0746
S. pneumoniae D39V, first compound 0.012 µg/mL, partner 0.01 µg/mL	0.921
S. pneumoniae D39V, first compound 0.012 µg/mL, partner 0.02 µg/mL	0.878
S. pneumoniae D39V, first compound 0.012 µg/mL, partner 0.04 µg/mL	0.6
S. pneumoniae D39V, first compound 0.024 µg/mL, partner 0.01 µg/mL	0.876
S. pneumoniae D39V, first compound 0.024 µg/mL, partner 0.02 µg/mL	0.853
S. pneumoniae D39V, first compound 0.024 µg/mL, partner 0.04 µg/mL	0.681
S. pneumoniae D39V, first compound 0.048 µg/mL, partner 0.01 µg/mL	0.821
S. pneumoniae D39V, first compound 0.048 µg/mL, partner 0.02 µg/mL	0.739
S. pneumoniae D39V, first compound 0.048 µg/mL, partner 0.04 µg/mL	0.544
S. pneumoniae D39V, first compound 0.375 µg/mL, partner 0.005 µg/mL	0.0823
S. pneumoniae D39V, first compound 0.375 µg/mL, partner 0.01 µg/mL	0.0713
S. pneumoniae D39V, first compound 0.375 µg/mL, partner 0.02 µg/mL	0.0526
S. pneumoniae D39V, first compound 0.75 µg/mL, partner 0.005 µg/mL	0.104
S. pneumoniae D39V, first compound 0.75 µg/mL, partner 0.01 µg/mL	0.0551
S. pneumoniae D39V, first compound 0.75 µg/mL, partner 0.02 µg/mL	0.0755
S. pneumoniae D39V, first compound 1.5 µg/mL, partner 0.005 µg/mL	0.0919
S. pneumoniae D39V, first compound 1.5 µg/mL, partner 0.01 µg/mL	0.0809
S. pneumoniae D39V, first compound 1.5 µg/mL, partner 0.02 µg/mL	0.0469

fitness, one replicate
Conditions	partner 0.0078 µg/mL	partner 0.0155 µg/mL	partner 0.0156 µg/mL	partner 0.031 µg/mL	partner 0.0312 µg/mL	partner 0.0625 µg/mL	partner 0.075 µg/mL	partner 0.15 µg/mL	partner 0.3 µg/mL
B. subtilis 168, first compound 0.0475 µg/mL	0.924	0.934	–	0.931	–	–	0.66	0.0283	0.0599
B. subtilis 168, first compound 0.095 µg/mL	0.926	0.814	–	0.674	–	–	0.581	0.0215	0.0316
B. subtilis 168, first compound 0.19 µg/mL	0.62	0.621	–	0.575	–	–	0.377	0.0401	0.0338
S. aureus DSM 20231, first compound 0.006 µg/mL	–	–	0.7	–	0.531	0.435	–	–	–

CN(C)[C@@H]1C(O)=C(C(N)=O)C(=O)[C@@]2(O)C(O)=C3C(=O)c4c(O)ccc(Cl)c4[C@@](C)(O)[C@H]3C[C@@H]12 [Chlortetracycline] + O=C(O[C@@H]1Cc2c(O)cc(O)cc2O[C@@H]1c1cc(O)c(O)c(O)c1)c1cc(O)c(O)c(O)c1 [EGCG]
fitness
Conditions	partner 6.25 µg/mL	partner 12.5 µg/mL	partner 25 µg/mL	partner 50 µg/mL
B. subtilis 168, first compound 0.0475 µg/mL	0.911	–	0.303	–
B. subtilis 168, first compound 0.095 µg/mL	0.754	0.463	–	–
B. subtilis 168, first compound 0.19 µg/mL	0.484	0.214	0.0594	–
S. aureus DSM 20231, first compound 0.012 µg/mL	–	0.595	0.549	–
S. aureus DSM 20231, first compound 0.024 µg/mL	–	0.455	0.398	0.332
S. aureus DSM 20231, first compound 0.048 µg/mL	–	0.138	0.108	0
S. pneumoniae D39V, first compound 0.012 µg/mL	–	0.759	0.805	0.949
S. pneumoniae D39V, first compound 0.024 µg/mL	–	0.444	0.454	0.672
S. pneumoniae D39V, first compound 0.048 µg/mL	–	0.247	0.212	–
S. pneumoniae D39V, first compound 0.375 µg/mL	–	0.07	0.0693	0.0612
S. pneumoniae D39V, first compound 0.75 µg/mL	–	0.0431	0.0527	0.0692
S. pneumoniae D39V, first compound 1.5 µg/mL	–	0.0475	0.0473	0.0718

S. aureus DSM 20231, first compound 0.006 µg/mL, one replicate
Conditions	fitness
partner 12.5 µg/mL	0.65
partner 25 µg/mL	0.623
partner 50 µg/mL	0.673
